Data on 8 compounds can be found in ChEMBL document CHEMBL3351300, “GnRH antagonists: the promise of treating sex-hormone-related diseases” (ACS Med Chem Lett, 2014).

The structures appear in SMILES notation.

The target of this experiment is T1, Gonadotropin-releasing hormone receptor (Homo sapiens, UniProt P30968).
T1 sequence (P30968 whole entry): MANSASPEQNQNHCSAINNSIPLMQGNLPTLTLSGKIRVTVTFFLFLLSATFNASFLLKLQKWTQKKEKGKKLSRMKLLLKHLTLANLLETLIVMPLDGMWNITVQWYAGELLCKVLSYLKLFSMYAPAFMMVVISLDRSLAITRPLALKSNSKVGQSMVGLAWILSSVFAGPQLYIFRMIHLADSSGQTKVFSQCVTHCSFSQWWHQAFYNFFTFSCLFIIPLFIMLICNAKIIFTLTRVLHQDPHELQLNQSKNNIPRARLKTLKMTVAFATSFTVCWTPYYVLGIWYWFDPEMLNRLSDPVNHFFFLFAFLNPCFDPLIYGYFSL
The experiment in a line: Antagonist activity against human GnRH receptor expressed in CHO cells by IP-one HTRF assay. It counts as cell-based.

What is called IC50 is the concentration that inhibits the measured activity by half. Read a high IC50 as lower potency. `O=C(NCc1ncc(Cl)cc1C(F)(F)F)c1ccc2c(c1)C1(CCS(=O)(=O)CC1)C(C1CC1)N2S(=O)(=O)c1ccc(F)cc1` (single isomer, unassigned; enantiomer 1): the concentration for half-maximal inhibition (IC50) turned out to be 3.3 nM.

The compound `N#Cc1cccc(S(=O)(=O)N2c3ccc(C(=O)NCc4ncc(C(F)(F)F)cc4F)cc3C3(CCS(=O)(=O)CC3)C2C2CC2)c1` (single isomer, unassigned; enantiomer 1) yielded an IC50 of 107 nM.

`O=C(NCc1ncc(C(F)(F)F)cc1Cl)c1ccc2c(c1)C1(CCS(=O)(=O)CC1)C(C1CC1)N2S(=O)(=O)c1cccc(OC(F)(F)F)c1` (single isomer, unassigned; enantiomer 1) came in with an IC50 of 68 nM.

In turn, `O=C(NCc1ncc(C(F)(F)F)cc1Cl)c1ccc2c(c1)C1(CCS(=O)(=O)CC1)C(C1CC1)N2S(=O)(=O)c1ccc(Cl)cc1` (single isomer, unassigned; enantiomer 1) returned an IC50 of 9350 nM.

`O=C(NCc1ncc(Cl)cc1C(F)(F)F)c1ccc2c(c1)C1(CCS(=O)(=O)CC1)C(C1CC1)N2S(=O)(=O)c1ccc(F)cc1` (single isomer, unassigned; enantiomer 2) showed an IC50 of 4080 nM.

`N#Cc1cccc(S(=O)(=O)N2c3ccc(C(=O)NCc4ncc(C(F)(F)F)cc4F)cc3C3(CCS(=O)(=O)CC3)C2C2CC2)c1` (single isomer, unassigned; enantiomer 2) had a half-inhibitory concentration (IC50) of 2310 nM.

For `O=C(NCc1ncc(C(F)(F)F)cc1Cl)c1ccc2c(c1)C1(CCS(=O)(=O)CC1)C(C1CC1)N2S(=O)(=O)c1cccc(OC(F)(F)F)c1` (single isomer, unassigned; enantiomer 2), the IC50 was found to be 4210 nM.

The compound `O=C(NCc1ncc(C(F)(F)F)cc1Cl)c1ccc2c(c1)C1(CCS(=O)(=O)CC1)C(C1CC1)N2S(=O)(=O)c1ccc(Cl)cc1` (single isomer, unassigned; enantiomer 2) came in with an IC50 of 5.5 nM.
